Laboratory results as given in ChEMBL document CHEMBL5442175, “EUbOPEN Chemogenomics Library - PDSP Secondary Binding” (2024).
Where a name gives a salt, the structure may show the parent alone.

Assays:
[1] = molecular target: 5-hydroxytryptamine receptor 2A (Homo sapiens, UniProt P28223); test: (§1) PDSP Secondary Binding target: HTR2A - Compounds are tested at 10 uM concentration, plate are incubated at room temperature in the dark for 90 minutes. Reaction are stopped by vacuum filtration onto 0.3% polyethyleneimine soaked filter mats using Filtermate harvester. Scintillation cocktail is then melted onto microwave-dried filters on a hot plate and the radio activity is counted in Microbia counter.
Translocator protein = Translocator protein (Homo sapiens, UniProt P30536); test: as §1, with “TSPO” for “HTR2A”
D(3) dopamine receptor = D(3) dopamine receptor (Homo sapiens, UniProt P35462); test: as §1, with “DRD3” for “HTR2A”
[2] = molecular target: Sodium-dependent dopamine transporter (Homo sapiens, UniProt Q01959); test: as §1, with “SLC6A3” for “HTR2A”
[3] = molecular target: T1, Muscarinic acetylcholine receptor M5 (Homo sapiens, UniProt P08912); test: as §1, with “CHRM5” for “HTR2A”
T1 sequence (P08912 whole entry): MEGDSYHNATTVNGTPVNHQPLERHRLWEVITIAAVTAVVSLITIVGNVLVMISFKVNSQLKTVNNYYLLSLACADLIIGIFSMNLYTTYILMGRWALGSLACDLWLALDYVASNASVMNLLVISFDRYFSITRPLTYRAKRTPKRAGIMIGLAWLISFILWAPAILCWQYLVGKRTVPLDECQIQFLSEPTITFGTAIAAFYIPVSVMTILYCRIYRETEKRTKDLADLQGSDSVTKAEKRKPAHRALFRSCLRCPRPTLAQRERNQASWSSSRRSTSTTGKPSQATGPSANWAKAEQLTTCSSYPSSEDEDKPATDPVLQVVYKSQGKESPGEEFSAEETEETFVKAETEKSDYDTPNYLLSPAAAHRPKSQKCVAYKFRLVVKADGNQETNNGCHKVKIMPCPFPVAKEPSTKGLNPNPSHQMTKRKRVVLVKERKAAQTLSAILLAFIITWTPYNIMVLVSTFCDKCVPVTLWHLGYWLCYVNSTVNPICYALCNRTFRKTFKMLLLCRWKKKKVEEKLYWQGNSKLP

[4] = molecular target: T2, Alpha-1B adrenergic receptor (Homo sapiens, UniProt P35368); test: as §1, with “ADRA1B” for “HTR2A”
T2 sequence (P35368 whole entry): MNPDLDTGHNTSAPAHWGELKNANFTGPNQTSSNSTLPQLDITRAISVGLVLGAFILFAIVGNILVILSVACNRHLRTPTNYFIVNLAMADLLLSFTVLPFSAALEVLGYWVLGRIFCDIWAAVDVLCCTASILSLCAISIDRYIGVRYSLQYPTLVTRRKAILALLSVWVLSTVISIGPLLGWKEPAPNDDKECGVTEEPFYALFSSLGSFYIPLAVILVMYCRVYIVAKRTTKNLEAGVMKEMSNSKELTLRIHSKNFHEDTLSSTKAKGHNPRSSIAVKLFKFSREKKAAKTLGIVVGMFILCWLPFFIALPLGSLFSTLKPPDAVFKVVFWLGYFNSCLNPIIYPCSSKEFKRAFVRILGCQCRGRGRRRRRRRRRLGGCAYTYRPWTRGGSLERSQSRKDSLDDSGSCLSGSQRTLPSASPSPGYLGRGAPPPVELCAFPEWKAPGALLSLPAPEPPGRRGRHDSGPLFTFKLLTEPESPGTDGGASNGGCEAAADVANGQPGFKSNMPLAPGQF

[5] = molecular target: Sigma intracellular receptor 2 (Homo sapiens, UniProt Q5BJF2); test: as §1, with “TMEM97” for “HTR2A”
[6] = molecular target: Sigma non-opioid intracellular receptor 1 (Homo sapiens, UniProt Q99720); test: as §1, with “SIGMAR1” for “HTR2A”
Mu-type opioid receptor = Mu-type opioid receptor (Homo sapiens, UniProt P35372); test: as §1, with “OPRM1” for “HTR2A”
[7] = molecular target: 5-hydroxytryptamine receptor 5A (Homo sapiens, UniProt P47898); test: as §1, with “HTR5A” for “HTR2A”
D(4) dopamine receptor = molecular target: T3, D(4) dopamine receptor (Homo sapiens, UniProt P21917); test: as §1, with “DRD4” for “HTR2A”
T3 sequence (P21917 whole entry): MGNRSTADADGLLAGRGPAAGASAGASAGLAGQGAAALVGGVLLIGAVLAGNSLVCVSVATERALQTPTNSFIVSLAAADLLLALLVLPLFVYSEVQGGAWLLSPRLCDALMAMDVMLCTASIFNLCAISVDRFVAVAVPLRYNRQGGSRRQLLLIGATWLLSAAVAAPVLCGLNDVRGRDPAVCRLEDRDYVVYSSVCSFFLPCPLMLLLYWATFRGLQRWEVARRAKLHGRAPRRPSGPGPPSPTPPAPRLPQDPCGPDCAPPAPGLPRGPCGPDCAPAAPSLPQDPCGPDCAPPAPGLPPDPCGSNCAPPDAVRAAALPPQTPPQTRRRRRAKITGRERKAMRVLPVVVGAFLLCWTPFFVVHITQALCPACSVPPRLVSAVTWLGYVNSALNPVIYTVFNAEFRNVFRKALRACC

[8] = molecular target: 5-hydroxytryptamine receptor 2B (Homo sapiens, UniProt P41595); test: as §1, with “HTR2B” for “HTR2A”
[9] = molecular target: Sodium-dependent noradrenaline transporter (Homo sapiens, UniProt P23975); test: as §1, with “SLC6A2” for “HTR2A”
[10] = molecular target: T4, Alpha-2A adrenergic receptor (Homo sapiens, UniProt P08913); test: as §1, with “ADRA2A” for “HTR2A”
T4 sequence (P08913 whole entry): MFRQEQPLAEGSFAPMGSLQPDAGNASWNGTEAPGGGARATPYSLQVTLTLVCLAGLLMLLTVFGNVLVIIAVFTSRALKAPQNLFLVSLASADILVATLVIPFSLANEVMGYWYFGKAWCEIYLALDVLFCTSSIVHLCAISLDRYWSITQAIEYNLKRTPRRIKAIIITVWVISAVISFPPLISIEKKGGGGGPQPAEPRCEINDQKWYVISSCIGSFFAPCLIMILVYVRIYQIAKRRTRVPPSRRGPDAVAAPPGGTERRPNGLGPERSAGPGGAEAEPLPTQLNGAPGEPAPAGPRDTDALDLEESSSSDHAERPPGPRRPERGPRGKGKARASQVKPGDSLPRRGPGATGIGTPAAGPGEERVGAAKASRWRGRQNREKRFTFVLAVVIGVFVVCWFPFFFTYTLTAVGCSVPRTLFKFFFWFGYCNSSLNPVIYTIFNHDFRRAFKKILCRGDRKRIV

[11] = molecular target: 5-hydroxytryptamine receptor 7 (Homo sapiens, UniProt P34969); test: as §1, with “HTR7” for “HTR2A”
[12] = molecular target: 5-hydroxytryptamine receptor 1D (Homo sapiens, UniProt P28221); test: as §1, with “HTR1D” for “HTR2A”
Chain of 5-hydroxytryptamine receptor 1D (P28221 whole entry): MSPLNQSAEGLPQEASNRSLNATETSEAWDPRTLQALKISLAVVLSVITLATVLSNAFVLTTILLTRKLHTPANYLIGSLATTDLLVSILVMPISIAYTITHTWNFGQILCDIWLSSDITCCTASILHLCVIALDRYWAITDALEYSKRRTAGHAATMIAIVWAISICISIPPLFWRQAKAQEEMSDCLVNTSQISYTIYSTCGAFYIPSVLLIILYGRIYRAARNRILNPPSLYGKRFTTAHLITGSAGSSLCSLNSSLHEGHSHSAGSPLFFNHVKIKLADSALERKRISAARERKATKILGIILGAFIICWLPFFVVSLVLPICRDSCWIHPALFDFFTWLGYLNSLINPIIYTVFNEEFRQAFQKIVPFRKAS

Chain of Sodium-dependent dopamine transporter (Q01959 whole entry): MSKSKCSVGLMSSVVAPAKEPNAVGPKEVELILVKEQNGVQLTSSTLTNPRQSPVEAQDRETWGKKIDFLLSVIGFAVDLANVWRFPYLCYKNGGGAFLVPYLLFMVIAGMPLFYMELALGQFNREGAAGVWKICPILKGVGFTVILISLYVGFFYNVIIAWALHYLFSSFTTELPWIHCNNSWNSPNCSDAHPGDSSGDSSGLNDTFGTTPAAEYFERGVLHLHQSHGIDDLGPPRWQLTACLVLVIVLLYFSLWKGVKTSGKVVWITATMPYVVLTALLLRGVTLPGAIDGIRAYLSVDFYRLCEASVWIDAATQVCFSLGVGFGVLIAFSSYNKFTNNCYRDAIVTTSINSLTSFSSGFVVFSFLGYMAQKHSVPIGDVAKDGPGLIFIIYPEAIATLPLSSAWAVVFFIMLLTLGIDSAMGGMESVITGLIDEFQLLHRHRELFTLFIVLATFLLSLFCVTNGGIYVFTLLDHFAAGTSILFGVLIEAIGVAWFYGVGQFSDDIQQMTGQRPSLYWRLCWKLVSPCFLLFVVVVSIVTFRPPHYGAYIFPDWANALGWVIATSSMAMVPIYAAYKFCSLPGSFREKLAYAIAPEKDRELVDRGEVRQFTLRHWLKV
Chain of Sigma non-opioid intracellular receptor 1 (Q99720 whole entry): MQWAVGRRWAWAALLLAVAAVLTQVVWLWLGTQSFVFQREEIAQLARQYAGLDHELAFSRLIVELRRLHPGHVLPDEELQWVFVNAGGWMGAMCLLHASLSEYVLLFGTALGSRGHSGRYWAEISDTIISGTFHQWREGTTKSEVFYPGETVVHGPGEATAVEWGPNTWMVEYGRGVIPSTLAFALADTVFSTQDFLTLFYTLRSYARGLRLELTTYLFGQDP
Chain of 5-hydroxytryptamine receptor 2A (P28223 whole entry): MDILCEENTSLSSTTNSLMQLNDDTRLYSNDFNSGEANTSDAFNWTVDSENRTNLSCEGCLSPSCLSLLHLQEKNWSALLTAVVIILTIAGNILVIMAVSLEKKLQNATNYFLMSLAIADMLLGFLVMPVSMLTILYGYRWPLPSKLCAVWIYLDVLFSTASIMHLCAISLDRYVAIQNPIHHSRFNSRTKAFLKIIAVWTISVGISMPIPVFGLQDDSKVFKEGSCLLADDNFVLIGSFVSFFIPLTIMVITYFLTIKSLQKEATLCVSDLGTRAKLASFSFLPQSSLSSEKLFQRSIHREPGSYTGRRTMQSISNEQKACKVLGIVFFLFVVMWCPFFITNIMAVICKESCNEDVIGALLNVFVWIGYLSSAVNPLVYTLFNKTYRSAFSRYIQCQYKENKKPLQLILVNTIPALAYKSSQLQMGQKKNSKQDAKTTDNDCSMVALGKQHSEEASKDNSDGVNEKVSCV
Chain of D(3) dopamine receptor (P35462 whole entry): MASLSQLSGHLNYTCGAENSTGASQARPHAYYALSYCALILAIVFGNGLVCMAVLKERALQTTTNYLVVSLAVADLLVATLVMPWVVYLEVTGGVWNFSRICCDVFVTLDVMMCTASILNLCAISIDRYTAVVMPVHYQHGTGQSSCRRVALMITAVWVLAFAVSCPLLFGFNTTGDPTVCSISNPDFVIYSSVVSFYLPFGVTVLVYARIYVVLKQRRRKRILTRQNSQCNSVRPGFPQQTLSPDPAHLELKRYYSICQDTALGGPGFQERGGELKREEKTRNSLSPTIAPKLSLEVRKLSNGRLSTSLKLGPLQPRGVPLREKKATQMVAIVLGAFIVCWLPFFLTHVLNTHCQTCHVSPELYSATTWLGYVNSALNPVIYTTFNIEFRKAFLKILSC
Chain of 5-hydroxytryptamine receptor 2B (P41595 whole entry): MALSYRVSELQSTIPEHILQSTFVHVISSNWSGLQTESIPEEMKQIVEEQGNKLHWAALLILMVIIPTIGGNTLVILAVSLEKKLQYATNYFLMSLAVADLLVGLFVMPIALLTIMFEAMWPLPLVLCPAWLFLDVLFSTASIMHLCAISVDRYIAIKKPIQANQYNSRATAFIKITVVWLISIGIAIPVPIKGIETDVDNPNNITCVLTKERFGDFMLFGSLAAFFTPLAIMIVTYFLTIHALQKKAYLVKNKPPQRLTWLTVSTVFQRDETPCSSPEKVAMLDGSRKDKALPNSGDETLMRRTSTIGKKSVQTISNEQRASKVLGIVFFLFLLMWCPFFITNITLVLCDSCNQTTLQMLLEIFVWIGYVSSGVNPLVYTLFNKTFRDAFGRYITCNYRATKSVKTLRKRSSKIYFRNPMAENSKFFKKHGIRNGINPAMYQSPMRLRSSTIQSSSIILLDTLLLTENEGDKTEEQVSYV
Chain of Sigma intracellular receptor 2 (Q5BJF2 whole entry): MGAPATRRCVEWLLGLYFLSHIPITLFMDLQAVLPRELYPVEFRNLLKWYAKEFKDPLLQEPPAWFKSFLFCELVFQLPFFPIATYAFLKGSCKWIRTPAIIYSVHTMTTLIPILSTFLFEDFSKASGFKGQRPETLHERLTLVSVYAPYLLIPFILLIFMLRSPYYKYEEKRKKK
Chain of Translocator protein (P30536 whole entry): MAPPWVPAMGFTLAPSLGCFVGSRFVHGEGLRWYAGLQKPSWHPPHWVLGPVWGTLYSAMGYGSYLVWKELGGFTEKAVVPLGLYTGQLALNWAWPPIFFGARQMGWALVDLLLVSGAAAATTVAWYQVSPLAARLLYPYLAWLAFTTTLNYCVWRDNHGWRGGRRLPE
Chain of 5-hydroxytryptamine receptor 5A (P47898 whole entry): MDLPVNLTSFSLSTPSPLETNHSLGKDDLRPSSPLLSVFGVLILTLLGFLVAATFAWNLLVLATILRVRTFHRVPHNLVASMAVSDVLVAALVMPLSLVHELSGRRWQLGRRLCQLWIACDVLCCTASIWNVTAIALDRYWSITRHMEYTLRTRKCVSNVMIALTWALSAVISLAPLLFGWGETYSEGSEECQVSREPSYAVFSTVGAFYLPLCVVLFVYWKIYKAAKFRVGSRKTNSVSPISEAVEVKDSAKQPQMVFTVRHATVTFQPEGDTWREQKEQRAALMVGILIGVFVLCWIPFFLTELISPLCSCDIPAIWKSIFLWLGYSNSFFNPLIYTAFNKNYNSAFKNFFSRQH
Chain of 5-hydroxytryptamine receptor 7 (P34969 whole entry): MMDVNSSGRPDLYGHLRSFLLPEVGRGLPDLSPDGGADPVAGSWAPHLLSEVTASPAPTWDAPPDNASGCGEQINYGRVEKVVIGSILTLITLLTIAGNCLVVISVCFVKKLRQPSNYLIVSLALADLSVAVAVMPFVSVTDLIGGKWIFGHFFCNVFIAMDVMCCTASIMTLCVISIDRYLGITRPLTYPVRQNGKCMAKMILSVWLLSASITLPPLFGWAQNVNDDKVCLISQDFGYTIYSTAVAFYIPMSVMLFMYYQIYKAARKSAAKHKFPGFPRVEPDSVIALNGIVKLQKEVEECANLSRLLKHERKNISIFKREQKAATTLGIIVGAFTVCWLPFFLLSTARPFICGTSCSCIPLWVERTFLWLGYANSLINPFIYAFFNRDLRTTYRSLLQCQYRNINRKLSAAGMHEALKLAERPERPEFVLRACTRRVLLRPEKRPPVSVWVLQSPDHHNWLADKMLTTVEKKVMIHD
Chain of Mu-type opioid receptor (P35372 whole entry): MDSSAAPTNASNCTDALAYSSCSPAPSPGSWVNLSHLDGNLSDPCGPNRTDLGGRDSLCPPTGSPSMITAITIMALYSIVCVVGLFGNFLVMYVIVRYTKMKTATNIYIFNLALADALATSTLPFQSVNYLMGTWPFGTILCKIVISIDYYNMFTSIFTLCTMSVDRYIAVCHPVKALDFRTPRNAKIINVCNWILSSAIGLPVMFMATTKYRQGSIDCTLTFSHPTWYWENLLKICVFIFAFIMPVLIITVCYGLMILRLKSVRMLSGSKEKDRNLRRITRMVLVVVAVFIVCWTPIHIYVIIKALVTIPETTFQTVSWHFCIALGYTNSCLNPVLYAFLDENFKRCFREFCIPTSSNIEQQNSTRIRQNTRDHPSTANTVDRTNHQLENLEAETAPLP
Chain of Sodium-dependent noradrenaline transporter (P23975 whole entry): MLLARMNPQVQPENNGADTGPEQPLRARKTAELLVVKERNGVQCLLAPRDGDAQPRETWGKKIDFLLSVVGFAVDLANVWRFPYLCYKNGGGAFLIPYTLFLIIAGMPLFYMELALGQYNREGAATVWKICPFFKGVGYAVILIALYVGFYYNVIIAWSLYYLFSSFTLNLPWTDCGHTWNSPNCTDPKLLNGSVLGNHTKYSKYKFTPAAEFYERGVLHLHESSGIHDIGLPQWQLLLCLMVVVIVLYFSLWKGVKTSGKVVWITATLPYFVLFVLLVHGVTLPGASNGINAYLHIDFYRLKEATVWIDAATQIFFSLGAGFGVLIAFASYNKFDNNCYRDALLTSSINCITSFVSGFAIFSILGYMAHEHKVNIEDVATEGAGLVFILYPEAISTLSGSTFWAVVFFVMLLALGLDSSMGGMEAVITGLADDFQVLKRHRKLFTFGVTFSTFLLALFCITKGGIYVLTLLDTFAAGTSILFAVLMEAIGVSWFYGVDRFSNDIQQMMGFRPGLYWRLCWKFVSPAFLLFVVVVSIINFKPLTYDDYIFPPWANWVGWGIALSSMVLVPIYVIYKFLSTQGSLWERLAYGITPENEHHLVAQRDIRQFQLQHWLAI

COc1ccc(CNC(=O)c2cc(-c3cncc(Cl)c3)cnc2-c2ccccn2)nc1OC [MK-1064]
Ki [1]: 4590 nM

NC(=O)[C@@H]1CCCN1C(=O)[C@H](Cc1cnc[nH]1)NC(=O)[C@@H]1CCC(=O)N1 [PROTIRELIN]
Ki (Translocator protein): > 10000 nM

O=C(O)CC1CCC2(CC1)CCN(c1cc(OC(F)(F)F)ccc1Cl)CC2
Ki (D(3) dopamine receptor): 591 nM

CCCCC#Cc1nc(NC)c2ncn([C@@H]3O[C@H](CO)[C@@H](O)[C@H]3O)c2n1
Ki [2]: > 10000 nM | Ki [1]: 7870 nM

Cc1nc(-c2ccc(C(F)(F)F)cc2)sc1COc1ccc([C@H](CC(=O)O)c2ccon2)cc1
Ki [2]: 4490 nM | Ki [3]: 6850 nM | Ki [4]: > 10000 nM

CCCSc1nc(N[C@@H]2C[C@H]2c2ccc(F)c(F)c2)c2nnn([C@@H]3C[C@H](OCCO)[C@@H](O)[C@H]3O)c2n1 [TICAGRELOR]
Ki [2]: 519 nM | Ki [5]: 1300 nM

COc1ccc(/C=C/CCCCOc2ccc(C(=O)c3cccc(C(=O)O)c3)cc2CCC(=O)O)cc1
Ki (D(3) dopamine receptor): 1960 nM

FC(F)(F)c1c(N2CCC(c3ccccc3)CC2)ccn2c(CC3CC3)nnc12
Ki [6]: 983 nM | Ki [2]: 4310 nM

CCCCCCCCCCCCC/C=C/[C@@H](O)[C@@H](N)COP(=O)(O)O
Ki (Translocator protein): 3120 nM | Ki [6]: 5980 nM | Ki [5]: 672 nM

N#Cc1c(O)nc(SCc2cccc(F)c2F)nc1C1CC1
Ki [3]: 6560 nM

COc1cc2nc(N3CCN(C(=O)c4ccco4)CC3)nc(N)c2cc1OC [PRAZOSIN HYDROCHLORIDE]
Ki (Translocator protein): > 10000 nM | Ki [6]: 2970 nM | Ki (Mu-type opioid receptor): 1790 nM | Ki [7]: 800 nM

Nc1nc(NCCc2ccc(O)cc2)nc2nc(-c3ccco3)nn12 [ZM-241385]
Ki [5]: 1070 nM

COc1ccc(Br)cc1S(=O)(=O)NC(=O)/C=C/c1ccccc1Cc1ccc2ccccc2c1
Ki (D(3) dopamine receptor): 582 nM

CC(C)Oc1ccccc1C(=O)Nc1ccccc1C(=O)Nc1cccc(S(=O)(=O)C(F)(F)F)c1
Ki (Translocator protein): 111 nM | Ki [1]: 983 nM

CC(C)NCC(O)COc1cccc2[nH]ccc12 (stereo not given) [PINDOLOL]
Ki (D(4) dopamine receptor): 1660 nM | Ki [5]: 3320 nM | Ki [7]: 7050 nM

CC1(C)SSC(C)(C)[C@@H](NC(=O)[C@@H](N)Cc2ccc(O)cc2)C(=O)NCC(=O)N[C@@H](Cc2ccccc2)C(=O)N[C@H]1C(=O)O
Ki (Translocator protein): 1630 nM

CCCCN(CC)c1nc(C)nc2c1c(C)cn2-c1c(C)cc(C)cc1C
Ki (Translocator protein): 1880 nM | Ki [5]: 2120 nM

COc1cc2c(CCNC(C)=O)c[nH]c2cc1Cl
Ki [8]: 844 nM | Ki [4]: > 10000 nM

Cc1cc(C)c(N)c(C#Cc2cccc(F)c2)n1 [RASEGLURANT]
Ki [9]: 345 nM

CC(C)NCC(O)COc1ccc(CCOCC2CC2)cc1 (stereo not given) [BETAXOLOL HYDROCHLORIDE]
Ki [6]: 248 nM | Ki [5]: 1650 nM

COC1CCN(c2cccc(-c3cc(NC(C)=O)nc(-n4nc(C)cc4C)n3)n2)CC1
Ki (Translocator protein): 969 nM | Ki [6]: 474 nM

COc1ccccc1CN[C@H]1C2CCN(CC2)[C@H]1C(c1ccccc1)c1ccccc1 [CP-96345]
Ki [5]: 906 nM | Ki [3]: 4940 nM

Cc1c(F)cccc1NC(=O)Nc1ccc(Cl)c(S(=O)(=O)[C@H]2CCCNC2)c1O [DANIRIXIN]
Ki [10]: > 10000 nM

COC(=O)[C@H]1[C@H]2C[C@H]3c4[nH]c5ccccc5c4CCN3C[C@H]2CC[C@@H]1O [RAUWOLSCINE HYDROCHLORIDE]
Ki [6]: 2780 nM | Ki [11]: 333 nM

Cc1c(C(=O)NC2CCCCC2)sc2nc3ccc(N)cc3n12
Ki [6]: 908 nM | Ki [8]: 656 nM

CCc1cc(C(C)=O)c(O)cc1OCCCCCC(C)(C)c1nn[nH]n1 [LY-255283]
Ki [6]: 5780 nM | Ki [8]: 2680 nM

CC1=C2C[C@H]3[C@@H](CC=C4C[C@@H](O)CC[C@@]43C)[C@@H]2CC[C@]12O[C@@H]1C[C@H](C)CN[C@H]1[C@H]2C [CYCLOPAMINE]
Ki [2]: 3420 nM | Ki [5]: 599 nM

CN1C(=O)[C@@H](NC(=O)c2cc3ccccc3[nH]2)N=C(c2ccccc2)c2ccccc21 [DEVAZEPIDE]
Ki (Translocator protein): 3330 nM

CNC[C@H](O)c1cccc(O)c1 [PHENYLEPHRINE]
Ki [11]: 1110 nM

CCCn1c(=O)c2[nH]c(C34CC5CC(CC3C5)C4)nc2n(CCC)c1=O [ROLOFYLLINE]
Ki [2]: 3360 nM

O=C1O[C@]2(CC[C@H](C(=O)Nc3ccn(-c4ccccc4F)n3)CC2)c2cnccc21 [MK-0557]
Ki (D(3) dopamine receptor): 3570 nM

O=C(Cc1ccccc1)Nc1nc2ccc(Cl)cc2c2nc(-c3ccco3)nn12
Ki [12]: > 10000 nM

CO[C@@H]1COCC[C@@H]1N[C@@H]1CC[C@@](C(=O)N2CCc3ncc(C(F)(F)F)cc3C2)(C(C)C)C1 [MK-0812]
Ki [6]: 830 nM | Ki [5]: 1870 nM

CCC(=O)NCC[C@@H]1CCc2ccc3c(c21)CCO3 [RAMELTEON]
Ki [6]: 8850 nM

Cc1csc(NC(=O)c2cc(F)cc(Oc3cncnc3)c2)n1
Ki (D(3) dopamine receptor): 2140 nM | Ki [2]: 2990 nM | Ki [3]: > 10000 nM
